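Cultured in 96-well plates, cells were exposed to test compound for 48 hours across five concentrations. At the GI50, growth is halved.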 Calls of active or inactive are those of the source. Rule as the data show it: active = GI50 up to about 1.1 µM and inactive = higher.
Experiments:
Assay in all cases: NCI-60 cell line screen, 48 h
[1] = system: HCT-116
[2] = system: T47D
[3] = system: TK-10
[4] = system: Malme-3M
[5] = system: ACHN
[6] = system: SF-539
[7] = system: OVCAR-8
[8] = system: COLO 205
[9] = system: M14
[10] = system: CAKI-1
[11] = system: DU-145
[12] = system: IGROV-1
[13] = system: A549
[14] = system: MDA-N
[15] = system: SK-OV-3
[16] = system: U-251
[17] = system: K562
[18] = system: RXF 393

Compound | GI50 [1] | GI50 [2] | GI50 [3] | GI50 [4] | GI50 [5] | GI50 [6] | GI50 [7] | GI50 [8] | GI50 [9] | GI50 [10] | GI50 [11] | GI50 [12] | GI50 [13] | GI50 [14] | GI50 [15] | GI50 [16] | GI50 [17] | GI50 [18]
COc1cc(C2SCC(=O)N2c2ccc(Oc3ccc(Cl)cc3)c(Cl)c2)cc(OC)c1OC (configuration not stated) | 18.7 µM (inactive) | 10.3 µM (inactive) | 17.6 µM (inactive) | 19.8 µM (inactive) | 30.9 µM (inactive) | 22.8 µM (inactive) | 17 µM (inactive) | 19.7 µM (inactive) | 29.9 µM (inactive) | 16.9 µM (inactive) | 13.3 µM (inactive) | 15.6 µM (inactive) | 21.9 µM (inactive) | 20 µM (inactive) | 17.1 µM (inactive) | 39.5 µM (inactive) | 33.4 µM (inactive) | –
CCOc1ncn(-c2ccc(NC(=S)NC34CC5CC(CC(C5)C3)C4)cc2)n1 | 68.4 µM (inactive) | > 100 µM (inactive) | 59.2 µM (inactive) | – | – | > 100 µM (inactive) | 22.8 µM (inactive) | > 100 µM (inactive) | 61.9 µM (inactive) | – | > 100 µM (inactive) | > 100 µM (inactive) | 7.24 µM (inactive) | > 100 µM (inactive) | 33.2 µM (inactive) | > 10 µM (inactive) | > 100 µM (inactive) | –
COc1ccc(-c2csc(Cc3nc4c(Br)cc(Br)cc4c(=O)n3-c3ccc(OC)cc3)n2)cc1 | 30.4 µM (inactive) | – | 56.6 µM (inactive) | – | 43.7 µM (inactive) | – | > 100 µM (inactive) | 34.8 µM (inactive) | 20.9 µM (inactive) | 94.4 µM (inactive) | > 100 µM (inactive) | 73.3 µM (inactive) | 63.2 µM (inactive) | 3.7 µM (inactive) | 51.8 µM (inactive) | 30.3 µM (inactive) | 0.333 µM (active) | > 100 µM (inactive)
O=C(O)CC(NC(=O)/C(=C/c1ccccc1O)NC(=O)c1ccccc1)C(=O)O (configuration not stated) | > 100 µM (inactive) | 79.4 µM (inactive) | > 100 µM (inactive) | 61.7 µM (inactive) | 40.8 µM (inactive) | > 100 µM (inactive) | > 100 µM (inactive) | > 100 µM (inactive) | > 100 µM (inactive) | 34.7 µM (inactive) | – | 58.9 µM (inactive) | > 100 µM (inactive) | > 100 µM (inactive) | > 100 µM (inactive) | 54.7 µM (inactive) | 74.1 µM (inactive) | –
CC(=O)c1c2c(cc3c1CC1(C3)Cc3cc4c(c(C(=O)O)c3C1)CCCC4)CCCC2.CC(N)c1ccccc1 (configuration not stated) | 25.1 µM (inactive) | 36.6 µM (inactive) | 37.5 µM (inactive) | 33.4 µM (inactive) | 28.8 µM (inactive) | – | 28.2 µM (inactive) | 27.9 µM (inactive) | 28.8 µM (inactive) | 33.4 µM (inactive) | 49 µM (inactive) | 34.8 µM (inactive) | 30.2 µM (inactive) | 42.1 µM (inactive) | 39.5 µM (inactive) | 26.1 µM (inactive) | 36.4 µM (inactive) | –
Cc1cc2ccccc2oc(=O)/c1=N\Nc1ccccc1 | 41.9 µM (inactive) | – | – | > 100 µM (inactive) | 22.6 µM (inactive) | 37.8 µM (inactive) | 28.8 µM (inactive) | > 100 µM (inactive) | > 100 µM (inactive) | 37.4 µM (inactive) | > 100 µM (inactive) | 25.8 µM (inactive) | 74.3 µM (inactive) | > 100 µM (inactive) | 21.5 µM (inactive) | 39.9 µM (inactive) | 14.5 µM (inactive) | 35.2 µM (inactive)
CC(=O)O[C@H]1CCC2[C@@H]3CCC4Cc5nc6c(nc5C[C@]4(C)C3CC[C@@]21C)CC1CC[C@@H]2C(CC[C@@]3(C)C2CC[C@@H]3C(C)CCCC(C)C)[C@@]1(C)C6 (some centres not stated) | > 100 µM (inactive) | > 100 µM (inactive) | > 100 µM (inactive) | > 100 µM (inactive) | > 100 µM (inactive) | > 100 µM (inactive) | > 100 µM (inactive) | > 100 µM (inactive) | > 100 µM (inactive) | – | > 100 µM (inactive) | > 100 µM (inactive) | > 100 µM (inactive) | > 100 µM (inactive) | > 100 µM (inactive) | > 100 µM (inactive) | > 100 µM (inactive) | > 100 µM (inactive)
CCOC(=O)Nn1cnnc1Cc1ccccc1 | > 100 µM (inactive) | > 100 µM (inactive) | > 100 µM (inactive) | > 100 µM (inactive) | > 100 µM (inactive) | > 100 µM (inactive) | > 100 µM (inactive) | > 100 µM (inactive) | > 100 µM (inactive) | > 100 µM (inactive) | – | > 100 µM (inactive) | > 100 µM (inactive) | > 100 µM (inactive) | > 100 µM (inactive) | > 100 µM (inactive) | > 100 µM (inactive) | –
O=c1c(-c2ccccc2Cl)coc2cc(F)ccc12 | 31.8 µM (inactive) | 45.1 µM (inactive) | 47.9 µM (inactive) | – | > 100 µM (inactive) | 11.9 µM (inactive) | 33.7 µM (inactive) | 44.7 µM (inactive) | 14.3 µM (inactive) | 29.1 µM (inactive) | 27 µM (inactive) | 6.07 µM (inactive) | 23.7 µM (inactive) | 3.79 µM (inactive) | 45.2 µM (inactive) | 10.2 µM (inactive) | – | 22.1 µM (inactive)
C=C1CN2CC(=C)CN(C1)CS(=O)(=O)N1CC(=C)CN(CC(=C)C1)S(=O)(=O)N1CC(=C)CN(CC(=C)C1)S(=O)(=O)C2 | 51.3 µM (inactive) | – | 22.1 µM (inactive) | 23.3 µM (inactive) | 47.1 µM (inactive) | 15.6 µM (inactive) | 40 µM (inactive) | 34 µM (inactive) | 37.6 µM (inactive) | > 100 µM (inactive) | 38.3 µM (inactive) | 59.8 µM (inactive) | 50.8 µM (inactive) | 52.5 µM (inactive) | – | 32.7 µM (inactive) | 56.5 µM (inactive) | 19.5 µM (inactive)
NC(=O)c1cc2ccccc2o/c1=N/O | > 100 µM (inactive) | > 100 µM (inactive) | > 100 µM (inactive) | – | > 100 µM (inactive) | > 100 µM (inactive) | > 100 µM (inactive) | > 100 µM (inactive) | > 100 µM (inactive) | 27.9 µM (inactive) | > 100 µM (inactive) | 66.1 µM (inactive) | 78.5 µM (inactive) | > 100 µM (inactive) | > 100 µM (inactive) | > 100 µM (inactive) | > 100 µM (inactive) | > 100 µM (inactive)
Cc1ccc2c(c1)NC(=O)CC(c1ccccc1)=N2 | 61.5 µM (inactive) | 70.6 µM (inactive) | > 100 µM (inactive) | > 100 µM (inactive) | > 100 µM (inactive) | > 100 µM (inactive) | > 100 µM (inactive) | – | > 100 µM (inactive) | > 100 µM (inactive) | > 100 µM (inactive) | > 100 µM (inactive) | 81.7 µM (inactive) | 23.7 µM (inactive) | > 100 µM (inactive) | > 100 µM (inactive) | 5.18 µM (inactive) | –

— ChEMBL document CHEMBL1201862, “PubChem BioAssay data set” (2004)
